Results from patent publication US9108983B2, “Pyrrole compounds, a process for their preparation and pharmaceutical compositions containing them” (LES LABORATOIRES SERVIER, priority 2013, dated 2015).
Structures can show the parent of a compound that is named as a salt.

How the values were obtained:
Bcl-2 protein = Bcl-2 protein (histag-Bcl-2, UniProtKB P10415) (Homo sapiens (Human), UniProt P10415); test: Inhibition of Bcl-2 by the fluorescence polarisation technique; format: binding; settings: incubation for 2 hours, read-out: IC50 (nM) Bcl-2 FP
Summary of the method: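 In pH 7.4 buffer (Hepes 10 mM, NaCl 150 mM, Tween20 0.05%), test compounds at increasing concentrations competed with a fluorescein peptide (1.00×10^−8 M final) for histag-Bcl-2 (2.50×10^−8 M final). Readout was fluorescence polarisation after a 2 h incubation.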

[1] = system: RS4;11 leukaemia tumour line; test: In vitro cytotoxicity (Microculture Tetrazolium Assay); format: cell-based; settings: Homo sapiens, RS4-11, 48 h, RS4;11 cells, exposed for 48 hours, cell viability; read-out: IC50 (nM) MTT RS4;11
Protocol: The cytotoxicity studies were carried out on the RS4;11 leukaemia tumour line.
The cells are distributed onto microplates and exposed to the test compounds for 48 hours.
The cell viability is then quantified by a colorimetric assay, the Microculture Tetrazolium Assay (Cancer Res., 1987, 47, 939-942).

Sequence of Bcl-2 protein (P10415 whole entry): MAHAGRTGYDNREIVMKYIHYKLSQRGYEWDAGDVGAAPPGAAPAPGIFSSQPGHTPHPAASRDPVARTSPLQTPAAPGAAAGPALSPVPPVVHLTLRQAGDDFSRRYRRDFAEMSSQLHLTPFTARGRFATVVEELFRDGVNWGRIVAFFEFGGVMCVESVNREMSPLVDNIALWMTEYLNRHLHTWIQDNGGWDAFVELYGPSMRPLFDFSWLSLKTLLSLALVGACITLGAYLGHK

| IC50 (Bcl-2 protein) [nM] | SMILES | IC50 [1] [nM] |
| --- | --- | --- |
| 5.4 | COc1ccc(C(=O)N2Cc3ccccc3C[C@H]2CN2CCOCC2)c(-c2cc(C(=O)N(c3ccc(O)cc3)c3cc(C#N)n(C)c3C)c(C)n2C)c1 [Example 408, N-(5-Cyano-1,2-dimethyl-1H-pyrrol-3-yl)-N-(4-hydroxyphenyl)-5-(5-methoxy-2-{[(3S)-3-(morpholin-4-ylmethyl)-3,4-dihydroisoquinolin-2(1H)-yl]carbonyl}phenyl)-1,2-dimethyl-1H-pyrrole-3-carboxamide hydrochloride] | 4.46 |
| 12.2 | Cc1c(C(=O)N(c2ccc(O)cc2)c2cnc3c(ccn3C)c2)cc(-c2ccccc2C(=O)N2Cc3ccccc3C[C@H]2CN2CCOCC2)n1C [Example 409, N-(4-Hydroxyphenyl)-1,2-dimethyl-N-(1-methyl-1H-pyrrolo[2,3-b]-pyridin-5-yl)-5-(2-{[(3S)-3-(morpholin-4-ylmethyl)-3,4-dihydroisoquinolin-2(1H)-yl]-carbonyl}phenyl)-1H-pyrrole-3-carboxamide hydrochloride] | 41.9 |
| 9.9 | Cc1c(C(=O)N(c2ccc(O)cc2)c2cnc3c(c2)CCN3C)cc(-c2ccccc2C(=O)N2Cc3ccccc3C[C@H]2CN2CCOCC2)n1C [Example 410, N-(4-Hydroxyphenyl)-1,2-dimethyl-N-(1-methyl-2,3-dihydro-1H-pyrrolo[2,3-b]pyridin-5-yl)-5-(2-{[(3S)-3-(morpholin-4-ylmethyl)-3,4-dihydroisoquinolin-2(1H)-yl]carbonyl}phenyl)-1H-pyrrole-3-carboxamide hydrochloride] | 61.6 |
| 5.5 | Cc1c(C(=O)N(c2ccc(O)cc2)c2cnn(C)c2)cc(-c2cc(Cl)ccc2C(=O)N2Cc3ccccc3C[C@H]2C)n1CCN1CCOCC1 [Example 411, 5-(5-Chloro-2-{[(3R)-3-methyl-3,4-dihydroisoquinolin-2(1H)-yl]carbonyl}phenyl)-N-(4-hydroxyphenyl)-2-methyl-N-(1-methyl-1H-pyrazol-4-yl)-1-[2-(morpholin-4-yl)ethyl]-1H-pyrrole-3-carboxamide hydrochloride] | 32.8 |
| 3.1 | Cc1c(N(C(=O)c2cc(-c3cc(Cl)ccc3C(=O)N3Cc4ccccc4C[C@H]3CCCN3CCOCC3)n(C)c2C)c2ccc(O)cc2)cc(C#N)n1C [Example 412, 5-(5-Chloro-2-{[(3R)-3-[3-(morpholin-4-yl)propyl]-3,4-dihydroisoquinolin-2(1H)-yl]carbonyl}phenyl)-N-(5-cyano-1,2-dimethyl-1H-pyrrol-3-yl)-N-(4-hydroxyphenyl)-1,2-dimethyl-1H-pyrrole-3-carboxamide hydrochloride] | 0.398 |
| 3.1 | Cc1c(N(C(=O)c2cc(-c3cc4c(cc3C(=O)N3Cc5ccccc5C[C@H]3CN3CCOCC3)OCCO4)n(C)c2C)c2ccc(O)cc2)cc(C#N)n1C [Example 413, N-(5-Cyano-1,2-dimethyl-1H-pyrrol-3-yl)-N-(4-hydroxyphenyl)-1,2-dimethyl-5-(7-{[(3S)-3-(morpholin-4-ylmethyl)-3,4-dihydroisoquinolin-2(1H)-yl]-carbonyl}-2,3-dihydro-1,4-benzodioxin-6-yl)-1H-pyrrole-3-carboxamide hydrochloride] | 9.43 |
| 3.8 | Cc1c(N(C(=O)c2cc(-c3cc(Cl)ccc3C(=O)N3Cc4ccccc4C[C@H]3CN3CCOCC3)n(C)c2)c2ccc(O)cc2)cc(C#N)n1C [Example 415, 5-(5-Chloro-2-{[(3S)-3-(morpholin-4-ylmethyl)-3,4-dihydroisoquinolin-2(1H)-yl]carbonyl}phenyl)-N-(5-cyano-1,2-dimethyl-1H-pyrrol-3-yl)-N-(4-hydroxyphenyl)-1-methyl-1H-pyrrole-3-carboxamide hydrochloride] | 29.9 |
| 2.9 | Cl.[2H]C([2H])([2H])n1cc(N(C(=O)c2cc(-c3cc(Cl)ccc3C(=O)N3Cc4ccccc4C[C@H]3CN3CCOCC3)n(C)c2C)c2ccc(O)cc2)cn1 [Example 416, 5-(5-Chloro-2-{[(3S)-3-(morpholin-4-ylmethyl)-3,4-dihydroisoquinolin-2(1H)-yl]carbonyl}phenyl)-N-(4-hydroxyphenyl)-1,2-dimethyl-N-[1-(trideuteriomethyl)-1H-pyrazol-4-yl]-1H-pyrrole-3-carboxamide hydrochloride] | 42.5 |
| 3 | COc1ccc(-c2cc(C(=O)N(c3ccc(O)cc3)c3cc(C#N)n(C)c3C)c(C)n2C)c(C(=O)N2Cc3ccccc3C[C@H]2CN2CCOCC2)c1 [Example 417, N-(5-Cyano-1,2-dimethyl-1H-pyrrol-3-yl)-N-(4-hydroxyphenyl)-5-(4-methoxy-2-{[(3S)-3-(morpholin-4-ylmethyl)-3,4-dihydroisoquinolin-2(1H)-yl]carbonyl}phenyl)-1,2-dimethyl-1H-pyrrole-3-carboxamide hydrochloride] | 11 |
| 10.1 | COc1ccc(-c2cc(C(=O)N(c3ccc(O)cc3)c3cnn(C)c3)c(C)n2C)c(C(=O)N2Cc3ccccc3C[C@H]2CN2CCOCC2)c1 [Example 418, N-(4-Hydroxyphenyl)-5-(4-methoxy-2-{[(3S)-3-(morpholin-4-ylmethyl)-3,4-dihydroisoquinolin-2(1H)-yl]carbonyl}phenyl)-1,2-dimethyl-N-(1-methyl-1H-pyrazol-4-yl)-1H-pyrrole-3-carboxamide hydrochloride] | 159 |
| 2.8 | Cc1c(C(=O)N(c2ccc(O)cc2)c2cccc(C#N)c2)cc(-c2cc(F)ccc2C(=O)N2Cc3ccccc3C[C@H]2CN2CCOCC2)n1C [Example 419, N-(3-Cyanophenyl)-5-(5-fluoro-2-{[(3S)-3-(morpholin-4-ylmethyl)-3,4-dihydroisoquinolin-2(1H)-yl]carbonyl}phenyl)-N-(4-hydroxyphenyl)-1,2-dimethyl-1H-pyrrole-3-carboxamide hydrochloride] | 15.8 |
| 2.5 | Cc1c(N(C(=O)c2cc(-c3cc(F)ccc3C(=O)N3Cc4ccccc4C[C@H]3CN3CCOCC3)n(C)c2C)c2ccc(O)cc2)cc(C#N)n1C [Example 421, N-(5-Cyano-1,2-dimethyl-1H-pyrrol-3-yl)-5-(5-fluoro-2-{[(3S)-3-(morpholin-4-ylmethyl)-3,4-dihydroisoquinolin-2(1H)-yl]carbonyl}phenyl)-N-(4-hydroxyphenyl)-1,2-dimethyl-1H-pyrrole-3-carboxamide hydrochloride] | 3.73 |
| 9.2 | Cc1c(C(=O)N(c2ccc(O)cc2)c2cnn(C)c2)cc(-c2ccccc2C(=O)N2Cc3ccccc3C[C@H]2CN2CCOCC2)n1C [Example 422, N-(4-Hydroxyphenyl)-1,2-dimethyl-N-(1-methyl-1H-pyrazol-4-yl)-5-(2-{[(3S)-3-(morpholin-4-ylmethyl)-3,4-dihydroisoquinolin-2(1H)-yl]carbonyl}phenyl)-1H-pyrrole-3-carboxamide hydrochloride] | 101 |
| 11.7 | Cc1c(C(=O)N(c2ccc(O)cc2)c2cnn(C3COC3)c2)cc(-c2cc(F)ccc2C(=O)N2Cc3ccccc3C[C@H]2CN2CCOCC2)n1C [Example 423, 5-(5-Fluoro-2-{[(3S)-3-(morpholin-4-ylmethyl)-3,4-dihydroisoquinolin-2(1H)-yl]carbonyl}phenyl)-N-(4-hydroxyphenyl)-1,2-dimethyl-N-[1-(oxetan-3-yl)-1H-pyrazol-4-yl]-1H-pyrrole-3-carboxamide] | 344 |
| 13.6 | COc1ncc(N(C(=O)c2cc(-c3ccccc3C(=O)N3Cc4ccccc4C[C@H]3CN3CCOCC3)n(C)c2C)c2ccc(O)cc2)cn1 [Example 424, N-(4-Hydroxyphenyl)-N-(2-methoxypyrimidin-5-yl)-1,2-dimethyl-5-(2-{[(3S)-3-(morpholin-4-ylmethyl)-3,4-dihydroisoquinolin-2(1H)-yl]carbonyl}phenyl)-1H-pyrrole-3-carboxamide hydrochloride] | 102 |
| 4.2 | COc1cc(C#N)cc(N(C(=O)c2cc(-c3cc(F)ccc3C(=O)N3Cc4ccccc4C[C@H]3CN3CCOCC3)n(C)c2C)c2ccc(O)cc2)c1 [Example 425, N-(3-Cyano-5-methoxyphenyl)-5-(5-fluoro-2-{[(3S)-3-(morpholin-4-ylmethyl)-3,4-dihydroisoquinolin-2(1H)-yl]carbonyl}phenyl)-N-(4-hydroxyphenyl)-1,2-dimethyl-1H-pyrrole-3-carboxamide hydrochloride] | 62 |
| 5.2 | COc1ncc(N(C(=O)c2cc(-c3cc(F)ccc3C(=O)N3Cc4ccccc4C[C@H]3CN3CCOCC3)n(C)c2C)c2ccc(O)cc2)cn1 [Example 426, 5-(5-Fluoro-2-{[(3S)-3-(morpholin-4-ylmethyl)-3,4-dihydroisoquinolin-2(1H)-yl]carbonyl}phenyl)-N-(4-hydroxyphenyl)-N-(2-methoxypyrimidin-5-yl)-1,2-dimethyl-1H-pyrrole-3-carboxamide] | 139 |
| 2.2 | COc1ccc(N(C(=O)c2cc(-c3cc(F)ccc3C(=O)N3Cc4ccccc4C[C@H]3CN3CCOCC3)n(C)c2C)c2ccc(O)cc2)cc1C#N [Example 427, N-(3-Cyano-4-methoxyphenyl)-5-(5-fluoro-2-{[(3S)-3-(morpholin-4-ylmethyl)-3,4-dihydroisoquinolin-2(1H)-yl]carbonyl}phenyl)-N-(4-hydroxyphenyl)-1,2-dimethyl-1H-pyrrole-3-carboxamide hydrochloride] | 23.3 |
